Reference: patent US7338932B2, “Methods of modulating functions of polypeptide GalNAc-transferases and of screening test substances to find agents herefor, pharmaceutical compositions comprising such agents and the use of such agents for preparing medicaments” (Glycozym APS, priority 2000, dated 2008)

How the values were obtained:
[1] = target: T1, GalNAc-T7 (Homo sapiens, UniProt Q86SF2); test: Inhibition of GalNAc-T7 activity with GalNAc2-3EA2 substrate; format: biochemical; details: 5 mM
T1 construct: made in house; host or cells: High Five insect cells (baculovirus)
T1 sequence (Q86SF2 30-657 limits assumed): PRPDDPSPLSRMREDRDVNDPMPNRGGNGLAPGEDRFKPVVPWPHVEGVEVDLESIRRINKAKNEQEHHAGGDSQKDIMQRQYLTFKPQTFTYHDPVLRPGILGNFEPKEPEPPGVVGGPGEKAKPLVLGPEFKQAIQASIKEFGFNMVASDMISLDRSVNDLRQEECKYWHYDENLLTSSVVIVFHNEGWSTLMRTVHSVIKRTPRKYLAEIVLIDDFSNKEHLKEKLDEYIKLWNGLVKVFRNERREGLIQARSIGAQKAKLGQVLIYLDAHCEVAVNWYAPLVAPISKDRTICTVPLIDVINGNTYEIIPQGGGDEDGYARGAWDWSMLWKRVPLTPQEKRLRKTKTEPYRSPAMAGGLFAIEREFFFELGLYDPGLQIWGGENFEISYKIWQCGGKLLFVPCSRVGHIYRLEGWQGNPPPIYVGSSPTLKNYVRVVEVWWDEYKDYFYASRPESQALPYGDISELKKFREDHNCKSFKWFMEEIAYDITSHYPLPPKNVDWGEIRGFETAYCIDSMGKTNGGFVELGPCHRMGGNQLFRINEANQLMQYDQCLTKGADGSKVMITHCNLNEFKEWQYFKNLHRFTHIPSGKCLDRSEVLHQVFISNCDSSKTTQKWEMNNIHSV
Description: Standard reaction mixtures (50 μl final volume) contained 25 mM cocadylate (pH 7.4), 10 mM MnCl2, 0.25% Triton X-100, 200 μM UDP-[^14C]-GalNAc (2,000 cpm/nmol) (Amersham), 200-500 μM acceptor peptides. Products were quantified by scintillation counting after chromatography on Dowex-1, octadecyl silica cartridges (Bakerbond), or HPLC (PC3.2/3 or mRPC C2/C18 SC2.1/10 Pharmacia, Smart System). […] Glycopeptides were purified on Supelclean LC-18 columns (1 ml, Supelco), and the number of GalNAc residues incorporated evaluated by MALDI-TOF mass spectrometry. The enzyme sources used were semipurified as previously described by successive sequential ion-exchange chromatographies on Amberlite (IRA95, Sigma) or DEAE Sephacel (Pharmacia), S-Sepharose Fast Flow (Pharmacia), and Mini-S™ (PC 3.2/3, Pharmacia) using the Smart System (Pharmacia) (28). Secreted GalNAc-T4 was obtained from a stably transfected CHO line (CHO/GalNA-T4/21A) (8) grown in roller bottles in HAMS F12 supplemented with 10% Fetal Bovine Serum. The experiments illustrated in FIG. 1 was performed with recombinant secreted GalNAc-T4 obtained from a stably transfected CHO line (8). Experiments illustrated in FIGS. 2 and 3 were performed with secreted GalNAc-T4 expressed in High Five cells grown in serum-free medium (8). Structural analysis of glycopeptides were performed by a combination of PFPA (pentafluoropropionic acid) hydrolysis and MALDI-TOF mass spectrometry as previously described (40). Secreted GalNAc-T7 was obtained from infected High Five™ cells grown in serum-free medium (Invitrogen) in upright roller bottles shaken 140 rpm in waterbaths at 27° C. GalNAc-T7 was not purified by Mini-S as the yields from cationic chromatography were low due to its low pI (6.4).
GalNAc-T7 activity was analysed with GalNAc glycosylated glycopeptides (represented by GalNAc2-3EA2 (7)) in reactions of 25 μl containing 2.5 nmol acceptor (glyco)peptide, 40 nmol UDP-GalNAc, and purified GalNAc-T7. […]

[2] = system: wild type CHO/MUC1sol-cloneC4; test: Secretion of MUC1, western blot of medium; format: cell-based, Chinese Hamster; details: 1-2 mM; compared to control treated or non-treated cells
Description: In order to characterize the secreted MUC1 product SDS-PAGE western blot analysis of harvested culture medium of confluent cultures were performed. Ten to twenty μL culture supernatant was analysed directly or treated with 0.1 U/mL neuraminidase (C. Perfringes VI, Sigma) for 30-60 min at 37° C. Samples were mixed with SDS sample buffer, reduced with DTT, and run on precast 4-20% gels (Biorad). As shown in FIG. 9 anti-MUC1 antibodies detected two forms of MUC1 in the medium; a low molecular weight form migrating as 130-140 kd corresponding to unglycosylated product, and a high molecular weight form migrating above 250 kd. The high molecular weight form was sensitive to neuraminidase treatment as evidenced by a marked shift and retardation in migration. […]
Because GalNAcα-benzyl exerts separate effects on O-glycan processing and mucin expression, the use of the novel selective inhibitor of mucin expression, GalNAcβ-benzyl, allow analysis of mucin expression and secretion in different cell line models. […] Most human adenocarcinoma cell lines express and secret mucins and analysis with antibodies to detect protein expression or probes to detect mRNA can reveal the types and quantities of mucins. […] The inhibitory effect on mucin secretion can be quantified by a number of assays known to the skilled in the art including western blot, ELISA, gelfiltration, immunocapture, and other assays.

Inhibition of GalNAc-T7 activity with GalNAc2-3EA2 [1]: significantly inhibited
SMILES: CC(=O)N[C@H]1[C@@H](OCc2ccccc2)O[C@H](CO)[C@H](O)[C@@H]1O [GalNAcα-benzyl]
Secreted MUC1 in medium [2]: inhibition of secreted MUC1
